Assay results taken from patent US12297190B2, “Modulators of STING (stimulator of interferon genes)” (PFIZER INC., priority 2019, dated 2025).
Where a name gives a salt, the structure may show the parent alone.

Key:
[1] = molecular target: T1, STING (Homo sapiens, UniProt Q86WV6, G230A/H232R/R293Q/R71H); test: Phosphorylation of IRF3: THP-1 cell ELISA; format: cell-based; conditions: THP-1 cells, 3 hours incubation, phospho-IRF3 ELISA; read-out: THP-1 CELL P-IRF3 EC50
T1 construct: host or cells: THP-1 and THP-1 Lucia ISG cells
T1 sequence (Q86WV6 whole entry R71H/G230A/H232R/R293Q): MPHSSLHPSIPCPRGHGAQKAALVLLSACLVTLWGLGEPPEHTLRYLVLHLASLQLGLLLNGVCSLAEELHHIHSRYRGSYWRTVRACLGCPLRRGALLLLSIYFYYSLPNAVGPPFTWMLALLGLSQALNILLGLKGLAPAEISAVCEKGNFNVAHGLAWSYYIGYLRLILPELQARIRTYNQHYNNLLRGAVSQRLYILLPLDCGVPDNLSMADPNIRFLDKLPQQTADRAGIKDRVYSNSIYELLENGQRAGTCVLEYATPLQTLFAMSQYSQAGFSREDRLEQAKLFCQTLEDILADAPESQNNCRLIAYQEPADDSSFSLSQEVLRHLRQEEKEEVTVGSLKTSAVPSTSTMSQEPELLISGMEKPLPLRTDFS
How it was run: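 THP-1 cells (10^4/well, seeded overnight) were treated with serially diluted compounds (final 0.5% DMSO) for 3 h. Lysates were analysed by sandwich ELISA (anti-IRF3 capture, anti-phospho-IRF3 detection, HRP luminescence). Signal was normalized as % effect between DMSO and a maximal STING agonist control.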

[2] = molecular target: T1, STING; test: Interferon-β induction: THP-1 Lucia ISG reporter cell line; format: cell-based; conditions: THP-1 Lucia ISG cells, 24 hours incubation, luciferase reporter; read-out: THP-1 Lucia ISG Cells IFN-β EC50
How it was run: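 THP-1 Lucia ISG cells (IRF-inducible secreted luciferase) treated 24 h with serially diluted compounds, final 0.5% DMSO, at 37 °C. Supernatant luminescence read with QUANTI-Luc, normalized to % effect between a maximal STING agonist positive control and DMSO.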

[3] = molecular target: R232-STING (Homo sapiens, UniProt Q86WV6, H232R); test: biochemical
R232-STING, sequence (Q86WV6 155-341 H232R): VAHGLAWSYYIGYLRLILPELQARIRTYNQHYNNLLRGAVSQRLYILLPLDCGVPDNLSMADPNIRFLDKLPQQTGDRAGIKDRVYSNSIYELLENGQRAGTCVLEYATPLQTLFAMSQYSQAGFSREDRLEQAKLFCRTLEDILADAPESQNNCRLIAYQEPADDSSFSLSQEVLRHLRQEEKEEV

| Compound | EC50 [1] [nM] | EC50 [2] [nM] | Ki [3] [nM] |
| --- | --- | --- | --- |
| CCn1nc(C)cc1-c1nc(-c2nc(C(N)=O)cc3c2cnn3C)c(CNC)s1 [Example AA01, 4-{2-(1-ethyl-3-methyl-1H-pyrazol-5-yl)-5-[(methylamino)methyl]-1,3-thiazol-4-yl}-1-methyl-1H-pyrazolo[4,3-c]pyridine-6-carboxamide] | 11800 | 13200 | 134 |
| CCn1nc(C)cc1-c1nc(-c2nc(C(N)=O)cc3c2cnn3C)c(C(C)N)s1 (single isomer, unassigned) [Example W02, 4-[5-(1-aminoethyl)-2-(1-ethyl-3-methyl-1H-pyrazol-5-yl)-1,3-thiazol-4-yl]-1-methyl-1H-pyrazolo[4,3-c]pyridine-6-carboxamide] | 2320 | 2460 | 67.5 |
| CCn1nc(C)c(F)c1-c1nc(-c2cc(C(N)=O)cc3c2cnn3CCN2CCOCC2)n[nH]1 [Example C05, 4-[5-(1-ethyl-4-fluoro-3-methyl-1H-pyrazol-5-yl)-1H-1,2,4-triazol-3-yl]-1-[2-(morpholin-4-yl)ethyl]-1H-indazole-6-carboxamide] | 31600 | 27400 | 165 |
| CCn1nc(C)cc1-c1n[nH]c(-c2cc(C(N)=O)cc3c2cnn3CCN2CC3CCC(C2)O3)n1 [Example M03] | 32100 | 28500 | 159 |
| CCn1nc(C)cc1-c1n[nH]c(-c2cc(C(N)=O)cc3c2cnn3C(C)CN2CCOCC2)n1 (stereo not drawn) [Example D06, 4-[5-(1-ethyl-3-methyl-1H-pyrazol-5-yl)-4H-1,2,4-triazol-3-yl]-1-[1-(morpholin-4-yl)propan-2-yl]-1H-indazole-6-carboxamide] | 82900 | ≥ 100000 | 301 |
| CCn1nc(C)cc1-c1nnc(-c2cc(C(N)=O)cc3c2cnn3CCC(=O)O)[nH]1 [YY03, 3-{6-carbamoyl-4-[5-(1-ethyl-3-methyl-1H-pyrazol-5-yl)-4H-1,2,4-triazol-3-yl]-1H-indazol-1-yl}propanoic acid] | > 100000 | > 100000 | 109 |
| CCn1nc(C)cc1-c1nc(-c2nc(C(N)=O)cc3c2cnn3C)n(CC(=O)O)n1 [YY29, [5-(6-carbamoyl-1-methyl-1H-pyrazolo[4,3-c]pyridin-4-yl)-3-(1-ethyl-3-methyl-1H-pyrazol-5-yl)-1H-1,2,4-triazol-1-yl]acetic acid] | > 33300 | > 33300 | 20.2 |
| CCn1nc(C)c(O)c1-c1n[nH]c(-c2nc(C(N)=O)cc3c2cnn3CCN2CCOCC2)n1 [YY34, 4-[3-(1-ethyl-4-hydroxy-3-methyl-1H-pyrazol-5-yl)-1H-1,2,4-triazol-5-yl]-1-[2-(morpholin-4-yl)ethyl]-1H-pyrazolo[4,3-c]pyridine-6-carboxamide] | > 10000 | > 10000 | 84.2 |
| CCn1ncc(O)c1-c1nc(-c2nc(C(N)=O)cc3c2cnn3C)c(CN)o1 [Example U02] | 6500 | 6200 | 51.6 |
| CCn1nc(C)cc1-c1n[nH]c(-c2cc(C(N)=O)cc3c2cnn3CCN2C[C@H](C)OC[C@@H]2C)n1 [Example M04] | 28000 | 28600 | 306 |
| CCn1nc(C)cc1-c1n[nH]c(-c2cc(C(N)=O)cc3c2cnn3CCN2CC3CCC2CO3)n1 (stereo not drawn) [YY25, 4-[3-(1-ethyl-3-methyl-1H-pyrazol-5-yl)-1H-1,2,4-triazol-5-yl]-1-[2-(2-oxa-5-azabicyclo[2.2.2]octan-5-yl)ethyl]-1H-indazole-6-carboxamide] | > 33300 | > 33300 | 212 |
| CCn1nc(C)cc1-c1nnc(-c2cc(C(N)=O)cc3c2cnn3CCN(C)C)[nH]1 [YY04, 1-[2-(dimethylamino)ethyl]-4-[5-(1-ethyl-3-methyl-1H-pyrazol-5-yl)-4H-1,2,4-triazol-3-yl]-1H-indazole-6-carboxamide] | > 100000 | > 100000 | > 638 |
| CCn1nc(C)cc1-c1nnc(-c2cc(C(N)=O)cc3c2cnn3C2CC3(CCNC3)C2)[nH]1 (stereo not drawn) [YY17, 1-(6-azaspiro[3.4]octan-2-yl)-4-[5-(1-ethyl-3-methyl-1H-pyrazol-5-yl)-4H-1,2,4-triazol-3-yl]-1H-indazole-6-carboxamide] | > 100000 | > 100000 | 376 |
| CCn1nc(C)c(Cl)c1-c1nc(-c2nc(C(N)=O)cc3c2cnn3C)c(CN)s1 [YY35, 4-[5-(aminomethyl)-2-(4-chloro-1-ethyl-3-methyl-1H-pyrazol-5-yl)-1,3-thiazol-4-yl]-1-methyl-1H-pyrazolo[4,3-c]pyridine-6-carboxamide] | > 10000 | > 10000 | 108 |
| CCn1nc(C)cc1-c1n[nH]c(-c2cc(C(N)=O)cc3c2cnn3CCN(C)CC(F)(F)F)n1 [Example D05, 4-[3-(1-ethyl-3-methyl-1H-pyrazol-5-yl)-1H-1,2,4-triazol-5-yl]-1-{2-[methyl(2,2,2-trifluoroethyl)amino]ethyl}-1H-indazole-6-carboxamide formic acid salt] | 20200 | 19900 | 232 |
| CCn1nc(C)cc1-c1n[nH]c(-c2cc(C(N)=O)cc3c(C)n[nH]c23)n1 [Example L01, 7-[3-(1-ethyl-3-methyl-1H-pyrazol-5-yl)-1H-1,2,4-triazol-5-yl]-3-methyl-1H-indazole-5-carboxamide] | 3090 | 3250 | 66.2 |
| CCn1nc(C)cc1-c1nnc(-c2cc(C(N)=O)cc3c2cnn3CCCCC2CCNCC2)[nH]1 [YY15, 4-[5-(1-ethyl-3-methyl-1H-pyrazol-5-yl)-4H-1,2,4-triazol-3-yl]-1-[4-(piperidin-4-yl)butyl]-1H-indazole-6-carboxamide] | > 100000 | > 100000 | 329 |
| CCn1nc(C)cc1-c1n[nH]c(-c2cc(C(N)=O)cc3c2cnn3CCN2CC(F)C2)n1 [Example M01, 4-[3-(1-ethyl-3-methyl-1H-pyrazol-5-yl)-1H-1,2,4-triazol-5-yl]-1-[2-(3-fluoroazetidin-1-yl)ethyl]-1H-indazole-6-carboxamide trifluoroacetic acid salt] | 77300 | 81900 | 501 |
| Cc1cc(-c2n[nH]c(-c3cc(C(N)=O)cc4c3cnn4C)n2)n(CCC(=O)O)n1 [Example C03, 3-{5-[5-(6-carbamoyl-1-methyl-1H-indazol-4-yl)-1H-1,2,4-triazol-3-yl]-3-methyl-1H-pyrazol-1-yl}propanoic acid] | 10900 | 8930 | 8.1 |

Further lines, results first:

| EC50 [1] [nM] | EC50 [2] [nM] | Ki [3] [nM] | Compound |
| --- | --- | --- | --- |
| 170 | 180 | 16 | CCn1nc(C)cc1-c1n[nH]c(-c2nc(C(N)=O)cc3c2cnn3C)n1 [Example K01, 4-[3-(1-ethyl-3-methyl-1H-pyrazol-5-yl)-1H-1,2,4-triazol-5-yl]-1-methyl-1H-pyrazolo[4,3-c]pyridine-6-carboxamide] |
| 80 | 80 | 2.2 | Cc1cc(-c2nc(-c3nc(C(N)=O)cc4c3cnn4C)n(C)n2)n(CCCO)n1 [Example AD01, 4-{3-[1-(3-hydroxypropyl)-3-methyl-1H-pyrazol-5-yl]-1-methyl-1H-1,2,4-triazol-5-yl}-1-methyl-1H-pyrazolo[4,3-c]pyridine-6-carboxamide] |
| 200 | 160 | 2.6 | CCn1nc(C)c(O)c1-c1nc(-c2nc(C(N)=O)cc3c2cnn3C)co1 [Example AE01, 4-[2-(1-ethyl-4-hydroxy-3-methyl-1H-pyrazol-5-yl)-1,3-oxazol-4-yl]-1-methyl-1H-pyrazolo[4,3-c]pyridine-6-carboxamide] |
| 1990 | 1850 | 34.4 | Cc1cc(-c2nc(-c3nc(C(N)=O)cc4c3cnn4C)c(CN)o2)n(CCCO)n1 [Example U04] |
| 530 | 510 | 14.2 | CCn1nc(C)cc1-c1nc(-c2nc(C(N)=O)cc3c2cnn3C)n(C)n1 [Example J01, 4-[3-(1-ethyl-3-methyl-1H-pyrazol-5-yl)-1-methyl-1H-1,2,4-triazol-5-yl]-1-methyl-1H-pyrazolo[4,3-c]pyridine-6-carboxamide] |
| 980 | 1460 | 27.7 | CCn1nc(C)cc1-c1nc(-c2nc(C(N)=O)cc3c2cnn3C)c(CN)o1 [Example T01, 4-[5-(aminomethyl)-2-(1-ethyl-3-methyl-1H-pyrazol-5-yl)-1,3-oxazol-4-yl]-1-methyl-1H-pyrazolo[4,3-c]pyridine-6-carboxamide] |
| 120 | 140 | 3.2 | CCn1nc(C)c(O)c1-c1nc(-c2nc(C(N)=O)cc3c2cnn3C)n(C)n1 [Example Q01, 4-[3-(1-ethyl-4-hydroxy-3-methyl-1H-pyrazol-5-yl)-1-methyl-1H-1,2,4-triazol-5-yl]-1-methyl-1H-pyrazolo[4,3-c]pyridine-6-carboxamide] |
| 2260 | 1950 | 11.5 | Cc1nn(CCCO)c(-c2nc(-c3nc(C(N)=O)cc4c3cnn4C)c(CN)s2)c1O [Example AF02] |
